Assay results taken from patent US10722519B2, “Aerosol fluoroquinolone formulations for improved pharmacokinetics” (priority 2008, dated 2020).
Values after ≈ are worked out from the molar mass of the structure shown. Like-named read-outs stand apart in the source and are kept apart here.

What was measured:
in vivo = conditions: rat, 10 mg/kg
Description: This example relates to aerosol and intravenous administration of fluoroquinolones in saline. A rat pharmacokinetic model was used to compare intravenous and pulmonary administration of fluoroquinolones. […] Doses were administered via the lateral tail vein, or to the lung just above the tracheal bifurcation using a micro-spray aerosol device (Penn Century, Philadelphia, Pa.).
Approximately 0.3 ml blood samples were taken from 2-6 rats at each timepoint via an indwelling jugular vein cannula, and collected in lithium heparin tubes. Bronchial alveolar lavage (BAL) and lung tissue were collected following euthanasia. […] Sample concentrations were determined against a standard curve.

P. aeruginosa ATCC 27853 [1] = test: MIC, broth microdilution; type: cell-based; conditions: Pseudomonas aeruginosa, ATCC27853, P. aeruginosa ATCC27853
Description: (§1) Bacterial strains MIC testing: P. aeruginosa ATCC 27853 and NH57388A were used in these studies. MICs were determined by a broth microdilution assay according to CLSI reference methods (Methods for dilution of antimicrobial susceptibility test for bacteria that grow aerobically. Seventh Edition: Clinical and Laboratory Standards Institute (2006) M&-A7, incorporated by reference in its entirety). Assays were performed in a final volume of 100 μl. The bacterial suspensions were adjusted to yield a cell density of 5×10^5 CFU/ml. Antibiotics were prepared at a concentration equivalent to twofold the highest desired final concentration in culture medium and were then diluted directly into 96-well microtiter plates. Microtiter plates were incubated for 24 h at 35° C. and were read by using a microtiter plate reader (Molecular Devices) at 600 nm as well as by visual observation by using a microtiter plate reading mirror.

P. aeruginosa NH57388A [2] = test: MIC, broth microdilution; type: cell-based; conditions: P. aeruginosa NIH57388A CF
Description: as §1

P. aeruginosa ATCC 27853 [3] = test: Acute mouse lung infection model; conditions: mice; for survival rate: monitored over 9 days; for maximum dose, limited due to toxicity: aerosol route
Description: Aerosol Administration of antibiotics: Antibiotics were aerosolized using a microspray aerosol device (MicroSprayer Model IA-C, PennCentury, Philadelphia, Pa.) attached to a FMJ-250 High-Pressure Syringe (PennCentury, Philadelphia, Pa.). […] For administration, each mouse was anesthetized (5% isoflurane in oxygen running at 4 L/min) and positioned securely at a 45-50° angle by the upper teeth, the microspray aerosol tip was inserted to the bifurcation and a 50 μl volume was administered.
The bacterial suspensions were adjusted to approximately 1-6×10^5 CFU/ml by correlation of the absorbance at 600 nm with predetermined plate counts. […] On day 4, mice were infected by intratracheal (IT) instillation of 0.05 ml of inoculum using a curved oral gavage tip attached to a 1 ml syringe. […] Antibiotics were aerosolized using a microspray aerosol device. All infections and aerosol treatments were performed under isoflurane anesthesia (5% isoflurane in oxygen running at 4 L/min). An untreated group of mice (n=8) was sacrificed prior to the initiation of treatment to determine baseline bacterial counts. […] The lungs were removed aseptically and homogenized (Pro200 homogenizer, Pro Scientific, Monroe, Conn.) in 1 ml of sterile saline. Serial 10-fold dilutions of the homogenized lung were plated on Mueller-hinton agar (MHA), and colonies counted.
In addition, due to the need for anesthesia for treatment, the maximum number of daily doses was limited to two.

P. aeruginosa NH57388A [4] = test: Chronic mouse lung infection model; type: in vivo; conditions: mice, aerosol tobramycin 60 mg/kg twice a day for three consecutive days
Description: Bacterial cells were harvested by centrifugation (23,000×g, 30 min, at 4° C.) and resuspended in 3-6 ml of MHB. The supernatant was collected and placed in 80° C. water-bath for 30 min. […] The precipitated alginate was collected with a sterile bacterial loop and washed several times in sterile saline. The purified alginate was then resuspended in 10 ml of sterile saline and stirred vigorously to form a homogeneous suspension. […] The bacterial suspension was diluted (1:10) in the alginate suspension to yield about 10^8 CFU/ml. […] On day 4, the mice were infected using a curved bead-tipped oral gavage attached to a 1 ml syringe while under isoflurane anesthesia.

[5] = aerosol dose of […], adults with cystic fibrosis, Cooney et al. 1994; cited from earlier work
[6] = male, Sprague-Dawley, in vivo, inhaled or intranasal
[7] = male, Sprague-Dawley, in vivo, iv
[8] = Pseudomonas aeruginosa, NH57388A, read-out: MIC

SMILES | F, % from Lung vs IV (in vivo; male, Sprague-Dawley, in vivo) [%] | MAT (in vivo; male, Sprague-Dawley, in vivo) [h] | AUC (in vivo; [6]) [ng·h/mL] | AUC(0-inf) (in vivo; [6]) [ng·h/mL] | MRT (in vivo; [6]) [h] | half-life (in vivo; [6]) [min] | AUC (in vivo; [7]) [ng·h/mL] | AUC(0-inf) (in vivo; [7]) [ng·h/mL] | MRT (in vivo; [7]) [h] | half-life (in vivo; [7]) [min] | MIC (P. aeruginosa NH57388A [2]; [8]) [µg/mL] | maximum dose, limited due to toxicity (P. aeruginosa ATCC 27853 [3]) [mg/kg] | other results
COc1c(N2CCNC(C)C2)c(F)cc2c(=O)c(C(=O)O)cn(C3CC3)c12 (stereo not shown) [Gatifloxacin, gatifloxacin] | 100 | 0 | 3120 | 5830 | 1.34 | 67.8 | 350 | 5310 | 1.39 | 63.6 |  |  | 
C[C@H]1[C@H](NC(=O)/C(=N\OC(C)(C)C(=O)O)c2csc(N)n2)C(=O)N1S(=O)(=O)O [Aztreonam, aztreonam] |  |  |  |  |  |  |  |  |  |  | 4 (≈ 9.19 µM) | 400 | MIC (P. aeruginosa ATCC 27853 [1]): 4 µg/mL (≈ 9.19 µM); survival rate (P. aeruginosa ATCC 27853 [3]; aerosol 800 mg/kg/day (400 mg/kg BID)): 20%; mean reductions in bacterial counts (P. aeruginosa ATCC 27853 [3]; aerosol aztreonam 400 mg/kg twice a day for 2 consecutive days): 0.24 log CFU per lung
CCn1cc(C(=O)O)c(=O)c2cc(F)c(N3CCNCC3)cc21 [Norfloxacin, norfloxacin] | 100 | 0 | 24600 | 4460 | 1.29 | 67.8 | 800 | 4650 | 1.59 | 72.6 |  |  | 
O=C(O)c1cn(C2CC2)c2cc(N3CCNCC3)c(F)cc2c1=O [Ciprofloxacin, ciprofloxacin] |  |  |  |  |  |  |  |  |  |  |  |  | MAT (in vivo; Aerosol, in saline): 0.59 h
CO/N=C1\CN(c2nc3c(cc2F)c(=O)c(C(=O)O)cn3C2CC2)CC1CN (stereo not shown) [Gemifloxacin, gemifloxacin] | 86 | 0.65 | 140000 | 5860 | 2.06 | 101 | 900 | 4540 | 1.41 | 62.4 |  |  | 
NC[C@H]1O[C@H](O[C@H]2[C@H](O)[C@@H](O[C@H]3O[C@H](CO)[C@@H](O)[C@H](N)[C@H]3O)[C@H](N)C[C@@H]2N)[C@H](N)C[C@@H]1O [Tobramycin, tobramycin] |  |  |  |  |  |  |  |  |  |  | < 1 | 60 | MIC (P. aeruginosa NH57388A [2]): 0.5 µg/mL (≈ 1.07 µM); survival rate (P. aeruginosa ATCC 27853 [3]; aerosol 120 mg/kg/day (60 mg/kg BID)): 60%; mean reductions in bacterial counts (P. aeruginosa ATCC 27853 [3]; aerosol tobramycin 60 mg/kg twice a day for 2 consecutive days): 2.70 log CFU per lung; mean log CFU reductions (P. aeruginosa NH57388A [4]): 2.9 log CFU; bioavailability [5]: about 9%
